{
  "source": "patent US11312692B1",
  "about": "“Polymorphic compounds and uses thereof” (Aldeyra Therapeutics, Inc., priority 2018, dated 2022)",
  "assay_type_in_all_cases": "physicochemical",
  "key": {"[1]": {"experiment": "Dynamic Vapour Sorption (DVS) with post-DVS XRPD", "settings": "for solid form post-DVS by XRPD: after DVS cycles", "description": "Dynamic Vapour Sorption (DVS): approximately, 10 mg of sample was placed into a mesh vapour sorption balance pan and loaded into a DVS-1 dynamic vapour sorption balance, a DVS Intrinsic dynamic vapour sorption balance or a DVS Advantage dynamic vapour sorption balance by Surface Measurement Systems. The sample was subjected to a ramping profile from 40-90% relative humidity (RH) at 10% increments, maintaining the sample at each step until a stable weight had been achieved (dm/dt 0.004%, minimum step length 30 minutes, maximum step length 500 minutes) at 25° C. After completion of the sorption cycle, the sample was dried using the same procedure to 0% RH and then a second sorption cycle back to 40% RH. Two cycles were performed. The weight change during the sorption/desorption cycles were plotted, allowing for the hygroscopic nature of the sample to be determined. XRPD analysis was then carried out on any solid retained."}, "[2]": {"experiment": "Aqueous solubility at pH 1, 4.5 and 6.8 (HPLC concentration, XRPD of solids)", "settings": "for solubility: thermodynamic from solid, shaken at ambient temperature", "description": "Approximately 20 mg of each of Compounds 1 and 5-8 was weighed into three 2 mL vials. The appropriate pH buffer was added to achieve pH values of pH 1, 4.5 and 6.8. The pH was measured after buffer addition and the pH adjusted if required back to the appropriate pH. […]"}, "[3]": {"experiment": "1 week stability (40° C./75% RH, 80° C., ambient), XRPD and HPLC purity", "description": "Scale up of both Forms B and C was carried out on the 200 mg scale. Form B was produced from acetone through evaporation. Characterisation of the solid, indicated the material had long lath-like crystals, with the remaining parameters consistent with the previously produced Form B material. Further analysis of the solid by NMR and mass spectrometry identified the material as an imine.\n(§1) Form C material was produced through crash cooling to −18° C. in acetonitrile, the material produced through this scale-up was identified as being similar to the previous Form C material."}, "[4]": {"experiment": "Conversion of solid form on grinding (XRPD)", "description": "as §1"}},
  "data": [
    {"smiles": "CC(C)(O)c1cc2oc(-c3ccccc3)nc2cc1N", "note": "[Compound A, Form A]", "values": [
      {"measurement": "hygroscopic nature (DVS)", "setting": "[1]; DVS, 25° C.", "result": "slightly hygroscopic"},
      {"measurement": "uptake at 90% RH (DVS)", "setting": "[1]; DVS, 25° C., 90% RH", "result": 0.6, "unit": "%"},
      {"measurement": "solid form post-DVS by XRPD", "setting": "[1]", "result": "consistent with the input material"}
    ]},
    {"smiles": "CC(C)(O)c1cc2oc(-c3ccccc3)nc2cc1N", "note": "[Compound 1 Form A]", "values": [
      {"measurement": "solubility", "setting": "[2]; aqueous buffer, pH 4.5 buffer", "result": "≥ 500", "unit": "mg/mL"},
      {"measurement": "solubility", "setting": "[2]; aqueous buffer, pH 6.8 buffer", "result": "≥ 500", "unit": "mg/mL"},
      {"measurement": "solubility", "setting": "[2]; simulated gastric fluid, pH 1 buffer", "result": "≥ 500", "unit": "mg/mL"}
    ]},
    {"smiles": "CC(C)(O)c1cc2oc(-c3ccccc3)nc2cc1N.CS(=O)(=O)O", "note": "[Form A of Compound 1]", "values": [
      {"measurement": "aqueous solubility compared with other salt forms", "setting": "[2]; versus Form C of Compound 5, Form A of Compound 6, Form B of Compound 7, Form B of Compound 8, pH 1, 4.5, 6.8 buffers, ca. 20 hours, ambient", "result": "far more soluble"}
    ]},
    {"smiles": "CC(C)(O)c1cc2oc(-c3ccccc3)nc2cc1N", "note": "[Compound A, Form C]", "values": [
      {"measurement": "hygroscopic nature (DVS)", "setting": "[1]; DVS, 25° C.", "result": "slightly hygroscopic"},
      {"measurement": "solid form post-DVS by XRPD", "setting": "[1]", "result": "Form A"},
      {"measurement": "drop in purity over the stability period", "setting": "[3]; 1 week, 40° C./75% RH, versus input Form C purity", "result": 0.1, "unit": "%"},
      {"measurement": "change in purity over the stability period", "setting": "[3]; 1 week, 80° C.", "result": "no change"},
      {"measurement": "change in purity over the stability period", "setting": "[3]; 1 week, ambient conditions", "result": "no change"},
      {"measurement": "solid form after 1 week stability by XRPD", "setting": "[3]; all three conditions (40° C./75% RH, 80° C., ambient)", "result": "converted to Form A"},
      {"measurement": "solid form when ground", "setting": "[4]", "result": "mixture of Forms A and C"}
    ]}
  ]
}
